Measured values as given in ChEMBL document CHEMBL5321200, “Discovery of the GSH responsive "Y-PROTACs" targeting ALK and CDK4/6 as a potential treatment for cancer” (Eur J Med Chem, 2023).
Active and inactive are the calls of the source. The calls are words filed in the database; no cut-off is given here.

Columns and labels:
[1] = test system: NCI-H3122; assay: Antiproliferative activity against human NCI-H3122 cells assessed as inhibition of cell growth incubated for 3 to 5 days by MTT assay; assay type: functional, cell-based
[2] = test system: NCI-H2228; assay: Antiproliferative activity against human NCI-H2228 cells assessed as inhibition of cell growth pretreated with GSH followed by compound addition and incubated for 3 to 5 days by MTT assay; assay type: functional, cell-based
[3] = target: Cyclin-dependent kinase 4 (Homo sapiens) (UniProt P11802); assay: Inhibition of CDK4 (unknown origin) at 1 uM by LANCE Ultra TR-FRET assay relative to control
Chain of Cyclin-dependent kinase 4 (Homo sapiens) (P11802 whole entry, the tested form may be a part): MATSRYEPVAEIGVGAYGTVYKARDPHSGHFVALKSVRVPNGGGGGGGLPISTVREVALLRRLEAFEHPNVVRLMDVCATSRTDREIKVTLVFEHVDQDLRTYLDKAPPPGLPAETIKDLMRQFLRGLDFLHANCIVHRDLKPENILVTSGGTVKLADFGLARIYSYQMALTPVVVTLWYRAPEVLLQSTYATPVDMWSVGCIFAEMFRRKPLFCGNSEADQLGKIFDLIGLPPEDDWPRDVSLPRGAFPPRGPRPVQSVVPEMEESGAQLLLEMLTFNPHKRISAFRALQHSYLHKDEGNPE

[4] = target: Cyclin-dependent kinase 4 (Homo sapiens) (UniProt P11802); assay: Inhibition of CDK4 (unknown origin) at 0.05 uM by LANCE Ultra TR-FRET assay relative to control
[5] = target: Protein cereblon/ALK tyrosine kinase receptor/Echinoderm microtubule-associated protein-like 4 (Homo sapiens, UniProt Q96SW2+Q9HC35+Q9UM73); assay: PROTAC activity at CRBN/EML4-ALK in human NCI-H3122 cells assessed as reduction in EML4-ALK fusion protein level incubated for 24 hrs by Western blot analysis; assay type: cell-based
[6] = target: T1, Protein cereblon/Cyclin-dependent kinase 4 (Homo sapiens, UniProt P11802+Q96SW2); assay: PROTAC activity at CRBN/CDK4 in human NCI-H3122 cells assessed as reduction in CDK4 protein level incubated for 24 hrs by Western blot analysis; assay type: cell-based
Target sequence in this assay (P11802 whole entry, the tested form may be a part): as above
Target sequence in this assay (Q96SW2 whole entry, the tested form may be a part): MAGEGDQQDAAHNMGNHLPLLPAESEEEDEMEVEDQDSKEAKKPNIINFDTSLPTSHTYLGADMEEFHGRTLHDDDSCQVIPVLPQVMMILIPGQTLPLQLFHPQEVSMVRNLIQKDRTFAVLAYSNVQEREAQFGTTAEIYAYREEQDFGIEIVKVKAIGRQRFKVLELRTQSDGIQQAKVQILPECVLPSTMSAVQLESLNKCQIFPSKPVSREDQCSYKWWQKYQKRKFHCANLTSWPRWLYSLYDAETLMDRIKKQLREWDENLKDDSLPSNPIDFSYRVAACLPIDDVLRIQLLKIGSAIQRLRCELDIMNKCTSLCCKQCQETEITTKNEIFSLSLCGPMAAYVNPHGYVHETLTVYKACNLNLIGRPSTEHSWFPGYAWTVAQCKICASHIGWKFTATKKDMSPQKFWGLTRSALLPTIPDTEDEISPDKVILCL

[7] = target: T2, Protein cereblon/ALK tyrosine kinase receptor/Echinoderm microtubule-associated protein-like 4 (Homo sapiens) (UniProt Q9UM73+Q9HC35+Q96SW2); assay: PROTAC activity at CRBN/EML4-ALK in human NCI-H3122 cells assessed as induction of EML4-ALK fusion protein degradation at 5 uM measured at 16 to 48 hrs by Western blot analysis; assay type: cell-based; details: time 16-48 hrs
T2 sequence (Q96SW2 whole entry partner, the tested form may be a part): as the sequence (Q96SW2 whole entry, the tested form may be a part) above
T2 sequence (Q9HC35 whole entry partner, the tested form may be a part): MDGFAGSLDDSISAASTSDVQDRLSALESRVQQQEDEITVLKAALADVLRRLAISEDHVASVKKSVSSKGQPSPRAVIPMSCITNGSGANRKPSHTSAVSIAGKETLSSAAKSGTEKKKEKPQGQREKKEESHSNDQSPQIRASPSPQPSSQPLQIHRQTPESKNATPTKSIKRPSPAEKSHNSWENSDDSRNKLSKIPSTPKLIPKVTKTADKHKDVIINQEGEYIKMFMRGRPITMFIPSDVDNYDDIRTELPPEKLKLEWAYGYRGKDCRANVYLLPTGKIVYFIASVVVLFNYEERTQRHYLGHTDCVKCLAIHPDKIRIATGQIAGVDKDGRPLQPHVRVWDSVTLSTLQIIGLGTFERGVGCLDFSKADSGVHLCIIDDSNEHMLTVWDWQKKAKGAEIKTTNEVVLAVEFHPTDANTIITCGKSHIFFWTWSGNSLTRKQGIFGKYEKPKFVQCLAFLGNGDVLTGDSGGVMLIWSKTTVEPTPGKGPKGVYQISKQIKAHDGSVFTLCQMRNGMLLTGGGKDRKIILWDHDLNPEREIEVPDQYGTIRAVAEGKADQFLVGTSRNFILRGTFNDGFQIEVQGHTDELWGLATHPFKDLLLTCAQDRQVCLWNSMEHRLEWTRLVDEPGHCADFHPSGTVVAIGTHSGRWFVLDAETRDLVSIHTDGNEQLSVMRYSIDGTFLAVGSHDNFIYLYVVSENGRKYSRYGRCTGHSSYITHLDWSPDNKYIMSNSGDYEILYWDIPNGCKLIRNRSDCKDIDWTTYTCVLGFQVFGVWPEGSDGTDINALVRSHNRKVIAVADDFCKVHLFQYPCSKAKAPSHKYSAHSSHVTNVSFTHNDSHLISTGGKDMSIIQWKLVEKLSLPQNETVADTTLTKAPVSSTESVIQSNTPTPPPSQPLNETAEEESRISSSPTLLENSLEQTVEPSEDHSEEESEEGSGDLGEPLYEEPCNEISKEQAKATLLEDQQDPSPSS
T2 sequence (Q9UM73 19-1620 limits assumed): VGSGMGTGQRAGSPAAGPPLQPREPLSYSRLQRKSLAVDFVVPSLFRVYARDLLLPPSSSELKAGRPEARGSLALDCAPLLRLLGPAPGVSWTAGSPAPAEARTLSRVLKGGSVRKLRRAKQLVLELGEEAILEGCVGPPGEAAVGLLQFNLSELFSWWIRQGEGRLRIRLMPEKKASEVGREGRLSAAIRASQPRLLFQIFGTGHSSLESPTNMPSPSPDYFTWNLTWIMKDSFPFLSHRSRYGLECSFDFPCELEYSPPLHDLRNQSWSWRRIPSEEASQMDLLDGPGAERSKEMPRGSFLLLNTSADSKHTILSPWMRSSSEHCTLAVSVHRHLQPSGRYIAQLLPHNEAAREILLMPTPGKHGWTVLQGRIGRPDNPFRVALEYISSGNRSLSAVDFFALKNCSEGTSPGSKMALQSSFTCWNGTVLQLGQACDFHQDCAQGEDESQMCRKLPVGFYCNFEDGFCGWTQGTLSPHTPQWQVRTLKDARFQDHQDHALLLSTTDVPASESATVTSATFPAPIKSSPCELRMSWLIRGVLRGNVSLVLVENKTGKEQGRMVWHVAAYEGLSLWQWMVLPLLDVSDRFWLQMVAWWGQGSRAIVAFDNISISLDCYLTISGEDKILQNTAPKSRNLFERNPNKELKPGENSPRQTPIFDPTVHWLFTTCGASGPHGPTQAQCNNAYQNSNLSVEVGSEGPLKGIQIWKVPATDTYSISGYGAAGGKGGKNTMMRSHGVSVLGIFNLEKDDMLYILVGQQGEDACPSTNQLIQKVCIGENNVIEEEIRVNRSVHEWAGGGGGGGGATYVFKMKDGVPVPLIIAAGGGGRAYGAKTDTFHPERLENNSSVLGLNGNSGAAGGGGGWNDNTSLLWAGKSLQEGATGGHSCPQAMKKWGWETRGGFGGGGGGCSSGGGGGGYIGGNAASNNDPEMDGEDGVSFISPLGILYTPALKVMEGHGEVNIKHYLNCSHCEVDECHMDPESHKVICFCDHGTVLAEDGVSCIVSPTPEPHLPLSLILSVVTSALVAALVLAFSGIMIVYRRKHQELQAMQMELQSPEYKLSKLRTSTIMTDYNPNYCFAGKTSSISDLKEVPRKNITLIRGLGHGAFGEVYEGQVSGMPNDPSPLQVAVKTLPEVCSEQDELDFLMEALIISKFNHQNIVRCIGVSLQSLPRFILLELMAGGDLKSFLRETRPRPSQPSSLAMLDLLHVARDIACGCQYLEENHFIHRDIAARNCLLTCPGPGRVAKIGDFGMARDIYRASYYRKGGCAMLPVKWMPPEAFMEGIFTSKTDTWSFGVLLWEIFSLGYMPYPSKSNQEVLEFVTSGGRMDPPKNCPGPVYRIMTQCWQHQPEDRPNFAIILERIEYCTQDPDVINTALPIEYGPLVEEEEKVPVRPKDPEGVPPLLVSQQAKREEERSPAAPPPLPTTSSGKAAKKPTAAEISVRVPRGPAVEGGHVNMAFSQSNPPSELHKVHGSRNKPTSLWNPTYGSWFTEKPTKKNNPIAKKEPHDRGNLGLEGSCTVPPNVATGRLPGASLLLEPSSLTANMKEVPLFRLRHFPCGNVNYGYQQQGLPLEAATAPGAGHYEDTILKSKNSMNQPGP

[8] = target: T1, Protein cereblon/Cyclin-dependent kinase 4; assay: PROTAC activity at CRBN/CDK4 in human NCI-H3122 cells assessed as downregulation of phosphorylated Rb level by Western blot analysis; assay type: cell-based
Target sequence in this assay (P11802 2-303 limits assumed): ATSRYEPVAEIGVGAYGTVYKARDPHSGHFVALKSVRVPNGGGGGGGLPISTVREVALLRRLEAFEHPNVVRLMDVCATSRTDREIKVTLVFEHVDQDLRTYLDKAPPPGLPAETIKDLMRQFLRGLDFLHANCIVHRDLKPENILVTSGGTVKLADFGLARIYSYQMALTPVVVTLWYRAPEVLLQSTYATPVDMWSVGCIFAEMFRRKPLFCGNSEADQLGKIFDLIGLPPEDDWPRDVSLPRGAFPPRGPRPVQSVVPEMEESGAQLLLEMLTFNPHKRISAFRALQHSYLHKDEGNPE
Target sequence in this assay (Q96SW2 whole entry partner, the tested form may be a part): as the sequence (Q96SW2 whole entry, the tested form may be a part) above

[9] = target: T1, Protein cereblon/Cyclin-dependent kinase 4; assay: PROTAC activity at CRBN/CDK4 in human NCI-H3122 cells assessed as reduction in CDK4 protein level at 5 uM incubated for 16 hrs followed by compound washout and measured after 8 hrs by Western blot analysis; assay type: cell-based
Target sequence in this assay (P11802 2-303 limits assumed): as the sequence (P11802 2-303 limits assumed) above
Target sequence in this assay (Q96SW2 whole entry partner, the tested form may be a part): as the sequence (Q96SW2 whole entry, the tested form may be a part) above

[10] = target: T2, Protein cereblon/ALK tyrosine kinase receptor/Echinoderm microtubule-associated protein-like 4 (Homo sapiens); assay: PROTAC activity at CRBN/EML4-ALK in human NCI-H3122 cells assessed as degradation of EML4-ALK fusion protein at 5 uM pretreated with MG132 for 4 hrs followed compound addition and measured after 24 hrs by Western blot analysis; assay type: cell-based
[11] = target: T2, Protein cereblon/ALK tyrosine kinase receptor/Echinoderm microtubule-associated protein-like 4 (Homo sapiens); assay: PROTAC activity at CRBN/EML4-ALK in human NCI-H3122 cells assessed as degradation of EML4-ALK fusion protein at 5 uM pretreated with pomalidomide for 4 hrs followed by compound addition and measured after 24 hrs by Western blot analysis; assay type: cell-based
[12] = test system: NCI-H3122; assay: Cell cycle arrest in human NCI-H3122 cells assessed as accumulation of cells at G0/G1 phase at 0.625 uM incubated for 24 hrs by propidium iodide staining based flow cytometric analysis (reference value: 48.68%); assay type: functional
[13] = test system: NCI-H3122; assay: Cell cycle arrest in human NCI-H3122 cells assessed as accumulation of cells at G0/G1 phase at 2.5 uM incubated for 24 hrs by propidium iodide staining based flow cytometric analysis (reference value: 48.68%); assay type: functional
[14] = test system: NCI-H3122; assay: Cell cycle arrest in human NCI-H3122 cells assessed as G2/M phase cells at 0.625 uM incubated for 24 hrs by propidium iodide staining based flow cytometric analysis (reference value: 20.89%); assay type: functional
[15] = test system: NCI-H3122; assay: Cell cycle arrest in human NCI-H3122 cells assessed as G2/M phase cells at 1.25 uM incubated for 24 hrs by propidium iodide staining based flow cytometric analysis (reference value: 20.89%); assay type: functional
[16] = test system: NCI-H3122; assay: Cell cycle arrest in human NCI-H3122 cells assessed as accumulation of cells at S phase at 2.5 uM incubated for 24 hrs by propidium iodide staining based flow cytometric analysis (reference value: 29.94%); assay type: functional
[17] = test system: NCI-H3122; assay: Induction of apoptosis in human NCI-H3122 cells assessed as viable cells at 0.312 uM incubated for 48 hrs by Annexin V-FITC/propidium iodide staining based flow cytometric analysis (reference value: 95.66%); assay type: functional; details: read-out: Activity
[18] = test system: NCI-H3122; assay: Induction of apoptosis in human NCI-H3122 cells assessed as viable cells at 0.625 uM incubated for 48 hrs by Annexin V-FITC/propidium iodide staining based flow cytometric analysis (reference value: 95.66%); assay type: functional; details: read-out: Activity
[19] = test system: NCI-H3122; assay: Induction of apoptosis in human NCI-H3122 cells assessed as viable cells at 2.5 uM incubated for 48 hrs by Annexin V-FITC/propidium iodide staining based flow cytometric analysis (reference value: 95.66%); assay type: functional; details: read-out: Activity
[20] = test system: NCI-H3122; assay: Induction of apoptosis in human NCI-H3122 cells assessed as early apoptotic cells at 0.625 uM incubated for 48 hrs by Annexin V-FITC/propidium iodide staining based flow cytometric analysis (reference value: 0.71%); assay type: functional
[21] = test system: NCI-H3122; assay: Induction of apoptosis in human NCI-H3122 cells assessed as late apoptotic cells at 0.312 uM incubated for 48 hrs by Annexin V-FITC/propidium iodide staining based flow cytometric analysis (reference value: 3.06%); assay type: functional
[22] = test system: NCI-H3122; assay: Induction of apoptosis in human NCI-H3122 cells assessed as necrotic cells at 2.5 uM incubated for 48 hrs by Annexin V-FITC/propidium iodide staining based flow cytometric analysis (reference value: 0.57%); assay type: functional
[23] = test system: NCI-H3122; assay: Antitumor activity against human NCI-H3122 cells xenografted in BALB/c nude mouse assessed as reduction in tumor weight at 75 mg/kg, IG administered once daily for 18 days and measured after 12 hrs of last dose; assay type: functional, organism-based; details: time 444.0 hrs
[24] = test system: Mus musculus; assay: In vivo PROTAC activity at CDK4 in BALB/c nude mouse xenografted with human NCI-H3122 cells assessed as reduction in CDK4 protein expression level in tumor at 75 mg/kg, IG administered once daily for 18 days and measured after 12 hrs of last dose by immunohistochemical analysis; assay type: functional, organism-based; details: time 444.0 hrs
[25] = Toxicity in BALB/c nude mouse xenografted with human NCI-H3122 cells assessed as effect on visceral lung morphology at 75 mg/kg, IG administered once daily for 18 days and measured after 12 hrs of last dose by H and E staining based analysis; assay type: organism-based; details: in vivo, po, 444 h
[26] = Toxicity in BALB/c nude mouse xenografted with human NCI-H3122 cells assessed as effect on visceral kidney morphology at 75 mg/kg, IG administered once daily for 18 days and measured after 12 hrs of last dose by H and E staining based analysis; assay type: organism-based; details: in vivo, po, 444 h
[27] = Toxicity in BALB/c nude mouse xenografted with human NCI-H3122 cells assessed as effect on spleen function at 75 mg/kg, IG administered once daily for 18 days by H and E staining based assay; assay type: organism-based; details: in vivo, po, 432 h, time 18 day
[28] = Toxicity in BALB/c nude mouse xenografted with human NCI-H3122 cells assessed as effect on kidney function at 75 mg/kg, IG administered once daily for 18 days by H and E staining based assay; assay type: organism-based; details: in vivo, po, 432 h, time 18 day
[29] = target: T1, Protein cereblon/Cyclin-dependent kinase 4; assay: PROTAC activity at CRBN/CDK4 in human NCI-H3122 cells assessed as induction of CDK4 degradation at 5 uM pretreated with pomalidomide for 4 hrs followed compound addition and measured after 24 hrs by Western blot analysis; assay type: cell-based
Target sequence in this assay (P11802 2-303 limits assumed): as the sequence (P11802 2-303 limits assumed) above
Target sequence in this assay (Q96SW2 whole entry partner, the tested form may be a part): as the sequence (Q96SW2 whole entry, the tested form may be a part) above

Question: With CC(=O)c1c(C)c2cnc(Nc3ccc(N4CCN(CC(=O)NCCSSCCN(CC(=O)NCCNc5cccc6c5C(=O)N(C5CCC(=O)NC5=O)C6=O)C(=O)CCCCCCC(=O)N5CCC(c6cc(OC(C)C)c(Nc7ncc(Cl)c(Nc8ccccc8S(=O)(=O)C(C)C)n7)cc6C)CC5)CC4)cn3)nc2n(C2CCCC2)c1=O (centres undefined) as the molecule, how does the IC50 [1] read?
Answer: The IC50 was 140 nM.

Question: What about the IC50 [2] of the same molecule?
Answer: The IC50 was 1760 nM.

Question: And the inhibition [3]?
Answer: The inhibition was 80.2%.

Question: And the inhibition [4]?
Answer: The inhibition was 54.9%.

Question: And the EC50 [5]?
Answer: The EC50 was 2830 nM.

Question: What about the EC50 [6] of the same molecule?
Answer: Its EC50 is 3690 nM.

Question: What about the Activity [7] of the same molecule?
Answer: Its Activity is “Active”.

Question: And the Activity [8]?
Answer: Its Activity is “Active”.

Question: And the Activity [9]?
Answer: The Activity was “inactive”.

Question: And the Activity [10]?
Answer: The Activity was “inactive”.

Question: And the Activity [11]?
Answer: The Activity was “inactive”.

Question: And the Activity [12]?
Answer: The Activity was 68.5%.

Question: What about the Activity [13] of the same molecule?
Answer: The Activity was 81.72%.

Question: What about the Activity [14] of the same molecule?
Answer: Its Activity is 16.42%.

Question: And the Activity [15]?
Answer: The Activity was 16.61%.

Question: What about the Activity [16] of the same molecule?
Answer: Its Activity is 6.04%.

Question: And the viability at 0.312 µM [17]?
Answer: The viability at 0.312 µM was 91.5%.

Question: And the viability at 0.625 µM [18]?
Answer: The viability at 0.625 µM was 88.9%.

Question: And the viability at 2.5 µM [19]?
Answer: Its viability at 2.5 µM is 81.8%.

Question: What about the Activity [20] of the same molecule?
Answer: Its Activity is 0.88%.

Question: What about the Activity [21] of the same molecule?
Answer: Its Activity is 5.85%.

Question: What about the Activity [22] of the same molecule?
Answer: The Activity was 1.01%.

Question: And the Activity [23]?
Answer: The Activity was “Active”.

Question: And the Activity [24]?
Answer: Its Activity is “Active”.

Question: What about the Activity [25] of the same molecule?
Answer: Its Activity is “Non-Toxic”.

Question: And the Activity [26]?
Answer: The Activity was “Non-Toxic”.

Question: And the Activity [27]?
Answer: The Activity was “Non-Toxic”.

Question: What about the Activity [28] of the same molecule?
Answer: The Activity was “Non-Toxic”.

Question: What about the Activity [29] of the same molecule?
Answer: The Activity was “inactive”.
